Entries after “also recorded” stand apart in the source; their conditions may differ.
What was measured:
[1] = system: genes involved in lipid/energy metabolism; assay: Gene chip microarray analysis of sham and drug treated liver; type: in vivo, mouse; settings: treated vs sham liver
From the text: The expression and proteomic studies were implemented with particular interest in lipid/energy metabolism pathways. […] We are also particularly interested in Car3, since this gene represents ˜30% of soluble protein in adipose tissue, goes up in adipocytes (˜2-fold) in response to high fat diet, but goes down in the liver dramatically in response to energetic starvation. Finally, Car3 is negatively regulated by insulin signaling and thus might reflect insulin sensitivity. FGF21 and Car3 are good biomarkers for liver function in response to metabolic changes.

[2] = system: C57-diet induced obesity mouse model; assay: Intraperitoneal glucose tolerance testing (IP-GTT) in C57-DIO mice; type: in vivo
Procedure: Glucose tolerance testing (IP-GTT) was performed via an IP injection of a 10% glucose solution at […] body weight within a 10 mL/kg body weight volume. Blood glucose was monitored pre and post injection at 15-minute intervals for 60 minutes using a standard glucometer. IP-GTT was chosen over oral GTT to bypass gut hormone signaling (GLP-1) for a more direct assessment of hepatic insulin resistance. IPGTT was performed on animals both prior to and after the 12-day test compound administration period to glean both individual animal responses and cohort averaged responses.

FGF21 = FGF21 expression in liver of treated C57-DIO mice (Western blot, qPCR, microarray); type: in vivo, mouse
From the text: (§1) The expression and proteomic studies were implemented with particular interest in lipid/energy metabolism pathways.

[3] = system: C57-diet induced obesity (DIO) mouse model; assay: Histological scoring of hepatic steatosis in the C57-DIO mouse model; type: in vivo; settings: C57-DIO mice; for fatty liver phenotype / hepatic steatosis by liver histology (H&E): once-daily IP injection for 12 days, 10 mg/kg body weight
From the text: The C57-diet induced obesity (DIO) mouse model was used in this study as a disease model for fatty liver disease and hepatic insulin resistance (FIG. 4). It was observed that eighty percent of the C57-DIO animals develop the fatty liver phenotype at 20-weeks, which highly correlates with insulin resistance penetrance and poor glycemic control. […] In humans, progressive accumulation of hepatic triglycerides is associated with metabolic syndrome/T2D and leads to impairment of insulin action in the liver. The two guiding phenotypic indicators of test compound efficacy in earlier studies were: histological scoring of hepatic steatosis, and intraperitoneal (IP) glucose tolerance.
Singly housed mice raised on a 60%-fat diet (20-week old males purchased from Sax labs) with extensive fatty liver were treated with the test compound for 12 days via daily intraperitoneal injection (IP). […] In addition, coats of treated animals were drier (FIG. 4B vs. C), consistent with reduction in triglycerides (also observed in the DGAT1 mouse knockout with dry coat).
During initial animal screening, we developed a quantitative histomorphometry platform software using components of the open-source CellProfiler software for automatically quantifying/scoring liver lipid content through lipid droplet detection in entire liver sections. In brief, entire H&E liver slides are scanned at 400× total magnification using an Aperio ScanScope slide scanner. For automated lipid phenotyping, we 1) detect entire pieces of tissue, 2) identify individual lipid droplets based on size and shape and, 3) measure mean droplet size and droplet density per […]. This automated quantitation of liver lipid phenotype, supervised and verified by a trained veterinary pathologist (PI Yi), offers an unbiased and simple method for comparing compound effects. Results from manual scoring of average degree of steatosis in cohorts are; Sham-90%, B127443-27% and are in good agreement with machine-aided scoring results as shown in FIG. 6.

CAR3 = CAR3 level in liver of treated mice (Western blot, 2D-DiGE); type: in vivo, mouse
From the text: as §1

[4] = drug treated at 10 mg/kg vs. vehicle
[5] = trials on large numbers of mice

O=C(Nc1ccc([N+](=O)[O-])cc1Cl)c1cc(Cl)ccc1O [Example B-127443, Niclosamide]
expression of genes involved in lipid/energy metabolism (FGF21, Fitm1, Fitm2, CideC, Cyp7A1, chn) [1]: significantly changed the expression of many genes involved in lipid/energy metabolism | glucose tolerance (IP-GTT), individual animals before and after treatment ([2]; 12-day treatment with 5 mg/kg, Animals 1,3): improved glucose tolerance | glucose tolerance (IP-GTT) ([2]; 12-day treatment, 10 mg/kg, cohort average (n=6) vs sham, 10 mg/kg): markedly improved; also recorded: marked improvement in glucose tolerance | FGF21 expression in liver, Western blot (FGF21; [4]): stimulation | FGF21 expression (FGF21; [5]): increases | fatty liver phenotype / hepatic steatosis by liver histology (H&E) ([3]; 10 mg/kg): dramatic therapeutic effects; also recorded: reversal of fatty phenotype | fatty liver phenotype / hepatic steatosis by liver histology (H&E) ([3]; listed as B127443, 10 mg/kg): efficacious; also recorded: robust responses | average degree of steatosis in cohorts, manual scoring ([3]; Sham 90%): 27% | CAR3 in liver, Western blot (CAR3; [4]): significant reduction | CAR3 protein level in liver, comparative proteomics (2D-DiGE) (CAR3; livers of treated mice): significantly lower levels of CAR3 protein | Car3 expression (CAR3; [5]): decreasing
